Earlier results as cited in patent US12636263B2, “Carotenoid compound coming from plant and containing natural astaxanthin, preparation method therefor, and composition” (Zhejiang Medicine Co., Ltd. Xinchang Pharmaceutical Factory, priority 2013, dated 2026).

Columns and labels:
[1] = in animal body
[2] = versus natural VE
[3] = in vivo; Johnson and An, Crit. Rev. Biotechnol, 1991

| bioavailability, higher than that of (3 R, 3 R)′-configuration [1] | bioavailability, higher than that of astaxanthin in the form of fatty acid ester [3] | SMILES | oxidizability (antioxidant) relative to natural VE [2] |
| --- | --- | --- | --- |
| 15 wt % |  | CC1=C(/C=C/C(C)=C/C=C/C(C)=C/C=C/C=C(C)/C=C/C=C(C)/C=C/C2=C(C)C(=O)[C@@H](O)CC2(C)C)C(C)(C)C[C@H](O)C1=O [(3 S, 3′S)-configuration, all-trans (3S, 3′S)-astaxanthin] |  |
|  | higher than 15% | CC1=C(/C=C/C(C)=C/C=C/C(C)=C/C=C/C=C(C)/C=C/C=C(C)/C=C/C2=C(C)C(=O)C(O)CC2(C)C)C(C)(C)CC(O)C1=O (stereo not drawn) [astaxanthin, 3,3′-dihydroxy-4,4′-diketo-β,β′-carotene] | 1000 times |
